Here are results for two molecules from patent publication US12029706B2, “Methods for treating mucopolysaccharidosis” (UNIVERSITY OF MIAMI, priority 2015, dated 2024).

In assay [1] the test system is α-L-iduronidase (IDUA) mRNA. Description: IDUA mRNA expression in MPS I patient cells (normalized to GAPDH). The class given is cell-based, human. The conditions noted are these: 48 hours. Here is the method: A cell culture experiment was performed in MPS-I patient-derived fibroblast cells. Cells were cultured overnight in a 384-well plate, at a concentration of 20,000 cells per well in advanced DMEM media (Life Technologies) supplemented with 15% FBS (Life technologies), 1× Glutamax (Life Technologies) and beta-mercaptoethanol (1:125000 dilution). The next day, cells were treated with the indicated compound with final concentrations including, but not limited to: 100 μ[…] and 0.12 μM depending on experiment. Treated cells were then incubated for 48 hours at 37° C., 5% CO2, 95% humidity. Cells were then washed with HBSS buffer, and 25 μM of the fluorogenic substrate 4-Methylumbelliferyl α-L-iduronide (free acid) (Santa Cruz Biotechnology) were added in the presence of 0.2M CHNaO2, 0.1% BSA, and 0.1% Triton X. After the addition of the 4-Methylumbelliferyl α-L-iduronide substrate, cells were incubated at 37° C. for 3 to 4 hours, placed at room temperature for 30 minutes to stabilize and alpha-L-iduronidase (IDUA) enzyme activity was measured using the EnVision Multilabel Plate Reader (Perkin Elmer, Inc.). Compounds were purchased from Tocris, Cayman Chemicals or Sigma-Aldrich. Tests were subsequently conducted to determine whether the increase in activity could in-part be attributed to increases in gene expression. […] Resveratrol and Piceatannol were added to patient cells for 48 hours, in the same conditions mentioned above.

For a further assay, the system named is alpha-L-iduronidase. Description: alpha-L-iduronidase activity in plasma of treated mice. The conditions noted are these: for alpha-L-iduronidase activity in plasma: 25 mg/kg or 50 mg/kg daily, 1 month; for α-iduronidase activity in plasma at 50 mg/kg/day: one month. The class given is in vivo.
Assay [2] deals with alpha-L-iduronidase (IDUA). Description: IDUA enzyme activity in MPS-I patient-derived fibroblast cells (4-Methylumbelliferyl α-L-iduronide substrate). The conditions noted are these: compound 48 hours, vs buffer only control, FIG. 1. It counts as cell-based, human. How it is done:
A cell culture experiment was performed in MPS-I patient-derived fibroblast cells. Cells were cultured overnight in a 384-well plate, at a concentration of 20,000 cells per well in advanced DMEM media (Life Technologies) supplemented with 15% FBS (Life technologies), 1× Glutamax (Life Technologies) and beta-mercaptoethanol (1:125000 dilution). The next day, cells were treated with the indicated compound with final concentrations including, but not limited to: 100 μM, 30 μM, 10 μM, 3.3 μM, 1.1 μM, 0.37 μM and 0.12 μM depending on experiment. Treated cells were then incubated for 48 hours at 37° C., 5% CO2, 95% humidity. Cells were then washed with HBSS buffer, and 25 μM of the fluorogenic substrate 4-Methylumbelliferyl α-L-iduronide (free acid) (Santa Cruz Biotechnology) were added in the presence of 0.2M CHNaO2, 0.1% BSA, and 0.1% Triton X. After the addition of the 4-Methylumbelliferyl α-L-iduronide substrate, cells were incubated at 37° C. for 3 to 4 hours, placed at room temperature for 30 minutes to stabilize and alpha-L-iduronidase (IDUA) enzyme activity was measured using the EnVision Multilabel Plate Reader (Perkin Elmer, Inc.). Compounds were purchased from Tocris, Cayman Chemicals or Sigma-Aldrich.

Each structure is given as a SMILES string. Entries after “also recorded” stand apart in the source; their conditions may differ.

Take `Oc1cc(O)cc(/C=C/c2ccc(O)c(O)c2)c1` [CTI-101, piceatannol]: the “IDUA mRNA level” value in assay [1] (FIG. 2, listed as Piceatannol) is listed as “increase in IDUA mRNA expression”; in assay [1] (FIG. 2, listed as piceatannol), “increased the mRNA level”. Further, the “alpha-L-iduronidase activity in plasma” value in the assay with alpha-L-iduronidase (FIG. 3) is given as “Increases in alpha-L-iduronidase activity”; with alpha-L-iduronidase (FIG. 3, listed as piceatannol), “elevation of α-iduronidase activity”. Also, in the assay on alpha-L-iduronidase (FIG. 3), the “α-iduronidase activity in plasma at 50 mg/kg/day” value is recorded as “substantial boosts in enzyme activity”.

Consider `Oc1ccc(/C=C/c2cc(O)cc(O)c2)cc1` [CTI-102, 3,5,4′-trihydroxystilbene], for which the “IDUA mRNA level” value in assay [1] (FIG. 2, listed as resveratrol) is on record as “increased the mRNA level; also recorded: increase in IDUA mRNA expression”. For the same molecule, in the assay on alpha-L-iduronidase (FIG. 3), the “alpha-L-iduronidase activity in plasma” value is “Increases in alpha-L-iduronidase activity” and the “α-iduronidase activity in plasma at 50 mg/kg/day” value was “substantial boosts in enzyme activity”. Moreover, the “alpha-L-iduronidase activity in plasma” value with alpha-L-iduronidase (FIG. 3, listed as resveratrol) is “elevation of α-iduronidase activity”. Moreover, the IDUA enzyme activity entry in assay [2] is recorded as “increase in IDUA activity”.
